Measured values as given in ChEMBL document CHEMBL3991601, “The target landscape of clinical kinase drugs” (Science, 2017).
The source made the active and inactive calls. Rule as the data show it, for most assays here: actives have a measured Kd and inactives only a lower limit.

Key:
[1] = biological target: Tyrosine-protein kinase Yes (Homo sapiens, UniProt P07947)
[2] = biological target: Casein kinase II subunit alpha' (Homo sapiens, UniProt P19784)
[3] = biological target: Serine/threonine-protein kinase/endoribonuclease IRE1 (Homo sapiens, UniProt O75460)
Serine/threonine-protein kinase/endoribonuclease IRE1, sequence (O75460 whole entry): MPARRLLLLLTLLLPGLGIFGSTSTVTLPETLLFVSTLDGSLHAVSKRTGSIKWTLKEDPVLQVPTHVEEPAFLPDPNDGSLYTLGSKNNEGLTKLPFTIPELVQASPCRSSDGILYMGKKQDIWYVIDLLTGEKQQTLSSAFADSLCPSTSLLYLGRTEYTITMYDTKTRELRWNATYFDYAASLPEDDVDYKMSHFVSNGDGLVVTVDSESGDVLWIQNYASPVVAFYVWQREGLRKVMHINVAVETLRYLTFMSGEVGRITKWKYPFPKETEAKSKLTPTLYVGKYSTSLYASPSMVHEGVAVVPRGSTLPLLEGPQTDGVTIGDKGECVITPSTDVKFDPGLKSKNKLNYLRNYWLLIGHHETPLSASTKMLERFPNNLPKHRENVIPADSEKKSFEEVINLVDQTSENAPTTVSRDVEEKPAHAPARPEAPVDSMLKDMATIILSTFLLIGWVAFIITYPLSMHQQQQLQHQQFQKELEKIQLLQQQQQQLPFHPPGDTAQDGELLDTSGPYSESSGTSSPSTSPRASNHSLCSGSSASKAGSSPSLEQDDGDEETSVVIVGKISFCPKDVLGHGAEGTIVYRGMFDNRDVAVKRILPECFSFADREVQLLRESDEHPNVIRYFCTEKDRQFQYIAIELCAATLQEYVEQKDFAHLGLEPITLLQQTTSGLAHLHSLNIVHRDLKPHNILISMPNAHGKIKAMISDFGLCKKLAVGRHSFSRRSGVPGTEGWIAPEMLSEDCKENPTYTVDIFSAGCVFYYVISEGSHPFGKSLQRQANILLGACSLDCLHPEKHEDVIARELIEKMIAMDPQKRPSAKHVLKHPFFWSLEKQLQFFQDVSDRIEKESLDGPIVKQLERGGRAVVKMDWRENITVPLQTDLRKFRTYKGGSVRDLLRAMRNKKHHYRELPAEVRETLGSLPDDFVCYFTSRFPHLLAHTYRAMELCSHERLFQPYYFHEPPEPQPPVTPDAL

[4] = biological target: T1, Glycogen phosphorylase, liver form (Homo sapiens, UniProt P06737); type: subcellular, K-562, COLO 205, SK-N-BE(2) and MV-4-11, Cell lysate; conditions: read-out: Kd apparent
T1 sequence (P06737 whole entry): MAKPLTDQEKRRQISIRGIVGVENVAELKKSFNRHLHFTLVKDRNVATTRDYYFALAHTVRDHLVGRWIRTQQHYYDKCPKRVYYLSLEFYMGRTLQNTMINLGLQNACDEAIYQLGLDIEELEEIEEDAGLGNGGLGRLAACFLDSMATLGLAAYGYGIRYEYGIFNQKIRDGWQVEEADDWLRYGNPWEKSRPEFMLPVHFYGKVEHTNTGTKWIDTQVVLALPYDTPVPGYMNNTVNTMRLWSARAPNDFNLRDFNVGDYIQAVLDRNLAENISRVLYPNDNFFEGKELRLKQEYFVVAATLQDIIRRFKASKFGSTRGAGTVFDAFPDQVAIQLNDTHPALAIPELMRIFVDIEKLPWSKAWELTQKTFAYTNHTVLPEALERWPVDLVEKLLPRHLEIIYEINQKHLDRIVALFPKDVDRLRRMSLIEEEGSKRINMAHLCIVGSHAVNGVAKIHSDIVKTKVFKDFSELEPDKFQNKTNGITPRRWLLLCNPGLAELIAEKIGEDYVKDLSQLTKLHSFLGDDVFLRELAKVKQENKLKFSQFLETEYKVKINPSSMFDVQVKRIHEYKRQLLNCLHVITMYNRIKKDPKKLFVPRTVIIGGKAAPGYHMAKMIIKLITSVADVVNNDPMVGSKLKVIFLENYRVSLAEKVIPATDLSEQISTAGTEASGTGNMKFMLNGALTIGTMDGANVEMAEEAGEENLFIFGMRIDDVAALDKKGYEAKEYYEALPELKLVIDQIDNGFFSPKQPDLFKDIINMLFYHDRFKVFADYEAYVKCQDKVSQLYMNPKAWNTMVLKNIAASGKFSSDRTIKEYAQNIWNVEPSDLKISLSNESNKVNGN

[5] = biological target: T2, Mitogen-activated protein kinase kinase kinase 3 (Homo sapiens, UniProt Q99759)
T2 sequence (Q99759 whole entry): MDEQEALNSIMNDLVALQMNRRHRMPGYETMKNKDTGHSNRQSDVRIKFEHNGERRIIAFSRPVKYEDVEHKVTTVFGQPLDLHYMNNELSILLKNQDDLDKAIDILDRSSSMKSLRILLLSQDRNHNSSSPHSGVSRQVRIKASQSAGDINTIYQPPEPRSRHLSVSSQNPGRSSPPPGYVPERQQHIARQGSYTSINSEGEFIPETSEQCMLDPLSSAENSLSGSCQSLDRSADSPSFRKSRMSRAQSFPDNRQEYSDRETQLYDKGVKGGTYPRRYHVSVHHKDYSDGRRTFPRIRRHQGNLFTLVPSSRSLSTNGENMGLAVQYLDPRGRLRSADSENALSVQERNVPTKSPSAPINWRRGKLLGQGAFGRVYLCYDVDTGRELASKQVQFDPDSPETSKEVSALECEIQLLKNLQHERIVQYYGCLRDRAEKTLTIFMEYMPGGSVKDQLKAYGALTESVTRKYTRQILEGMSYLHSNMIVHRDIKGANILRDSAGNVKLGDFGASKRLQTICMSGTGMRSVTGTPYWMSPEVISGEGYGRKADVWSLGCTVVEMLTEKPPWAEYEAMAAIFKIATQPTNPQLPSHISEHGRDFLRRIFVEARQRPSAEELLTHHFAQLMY

[6] = biological target: Insulin receptor (Homo sapiens, UniProt P06213)
Insulin receptor, sequence (P06213 28-758 limits assumed): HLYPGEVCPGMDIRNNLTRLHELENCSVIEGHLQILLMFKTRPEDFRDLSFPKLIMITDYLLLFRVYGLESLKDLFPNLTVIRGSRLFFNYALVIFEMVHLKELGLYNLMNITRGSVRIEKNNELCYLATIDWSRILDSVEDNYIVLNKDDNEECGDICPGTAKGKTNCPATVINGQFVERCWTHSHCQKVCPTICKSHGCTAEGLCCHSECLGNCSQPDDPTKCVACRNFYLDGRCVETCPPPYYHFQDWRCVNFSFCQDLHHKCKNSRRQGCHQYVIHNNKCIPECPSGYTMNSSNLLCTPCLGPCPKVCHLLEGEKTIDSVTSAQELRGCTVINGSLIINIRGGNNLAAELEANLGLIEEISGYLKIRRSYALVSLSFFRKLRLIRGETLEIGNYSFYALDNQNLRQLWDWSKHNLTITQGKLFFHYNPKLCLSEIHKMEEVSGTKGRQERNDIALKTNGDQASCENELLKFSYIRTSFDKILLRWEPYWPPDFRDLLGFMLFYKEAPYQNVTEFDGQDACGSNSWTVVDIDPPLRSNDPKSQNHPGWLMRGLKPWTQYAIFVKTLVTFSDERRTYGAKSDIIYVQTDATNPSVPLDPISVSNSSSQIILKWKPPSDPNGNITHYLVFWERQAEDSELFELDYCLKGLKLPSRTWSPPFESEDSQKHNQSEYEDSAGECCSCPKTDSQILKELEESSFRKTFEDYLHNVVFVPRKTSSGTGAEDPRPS
Insulin receptor, sequence (P06213 763-1382 limits assumed): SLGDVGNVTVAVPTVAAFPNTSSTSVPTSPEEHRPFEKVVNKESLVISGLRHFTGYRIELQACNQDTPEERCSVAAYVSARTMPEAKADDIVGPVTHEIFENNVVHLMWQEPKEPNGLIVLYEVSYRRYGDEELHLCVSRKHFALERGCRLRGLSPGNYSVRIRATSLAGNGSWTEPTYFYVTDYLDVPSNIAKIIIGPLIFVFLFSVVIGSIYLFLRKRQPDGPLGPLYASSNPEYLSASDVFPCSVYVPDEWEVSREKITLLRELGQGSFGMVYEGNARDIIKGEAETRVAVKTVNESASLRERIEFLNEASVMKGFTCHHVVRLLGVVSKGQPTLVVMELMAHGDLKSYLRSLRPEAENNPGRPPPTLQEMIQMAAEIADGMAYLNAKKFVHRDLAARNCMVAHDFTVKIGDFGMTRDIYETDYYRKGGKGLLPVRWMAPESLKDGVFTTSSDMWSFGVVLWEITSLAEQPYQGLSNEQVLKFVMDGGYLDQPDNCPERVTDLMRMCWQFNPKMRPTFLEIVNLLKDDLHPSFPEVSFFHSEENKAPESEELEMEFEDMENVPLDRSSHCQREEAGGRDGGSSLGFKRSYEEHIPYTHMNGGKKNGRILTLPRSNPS

[7] = biological target: Serine/threonine-protein kinase PAK 4 (Homo sapiens, UniProt O96013)
Serine/threonine-protein kinase PAK 4, sequence (O96013 whole entry): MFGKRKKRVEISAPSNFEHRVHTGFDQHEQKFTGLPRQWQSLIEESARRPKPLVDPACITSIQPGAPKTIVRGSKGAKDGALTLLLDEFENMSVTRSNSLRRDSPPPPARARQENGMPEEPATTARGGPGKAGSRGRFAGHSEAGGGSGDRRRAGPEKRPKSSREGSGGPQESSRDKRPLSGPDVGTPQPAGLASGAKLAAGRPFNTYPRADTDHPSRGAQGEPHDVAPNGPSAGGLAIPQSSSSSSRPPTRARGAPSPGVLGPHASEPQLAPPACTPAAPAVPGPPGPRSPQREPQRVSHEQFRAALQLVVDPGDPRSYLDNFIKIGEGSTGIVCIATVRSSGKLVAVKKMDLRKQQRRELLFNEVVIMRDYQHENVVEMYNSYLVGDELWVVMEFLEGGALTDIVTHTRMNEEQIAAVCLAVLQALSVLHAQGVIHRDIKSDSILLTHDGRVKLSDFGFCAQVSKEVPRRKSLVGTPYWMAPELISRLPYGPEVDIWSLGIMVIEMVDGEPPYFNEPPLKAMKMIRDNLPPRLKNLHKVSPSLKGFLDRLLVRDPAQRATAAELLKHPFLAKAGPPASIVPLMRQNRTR

[8] = biological target: T3, Serine/threonine-protein kinase ICK (Homo sapiens, UniProt Q9UPZ9)
T3 sequence (Q9UPZ9 whole entry): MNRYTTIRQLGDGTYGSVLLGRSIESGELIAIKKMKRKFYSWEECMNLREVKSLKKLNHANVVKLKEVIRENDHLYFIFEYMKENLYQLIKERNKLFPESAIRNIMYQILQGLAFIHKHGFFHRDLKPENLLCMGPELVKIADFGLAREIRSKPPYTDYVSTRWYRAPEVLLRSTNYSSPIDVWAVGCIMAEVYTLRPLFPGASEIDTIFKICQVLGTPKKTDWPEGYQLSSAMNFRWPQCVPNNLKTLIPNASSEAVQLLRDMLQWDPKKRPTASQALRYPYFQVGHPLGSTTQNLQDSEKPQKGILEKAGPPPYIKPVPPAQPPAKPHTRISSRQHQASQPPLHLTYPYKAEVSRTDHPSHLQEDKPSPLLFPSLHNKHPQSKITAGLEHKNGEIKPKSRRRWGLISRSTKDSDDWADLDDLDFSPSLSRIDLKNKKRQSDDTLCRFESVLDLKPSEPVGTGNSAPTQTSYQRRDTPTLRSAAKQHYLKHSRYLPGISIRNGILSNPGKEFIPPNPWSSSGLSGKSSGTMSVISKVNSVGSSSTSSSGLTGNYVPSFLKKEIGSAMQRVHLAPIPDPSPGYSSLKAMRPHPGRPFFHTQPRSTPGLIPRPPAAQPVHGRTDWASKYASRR
Also: in the data inactive means no Kd found up to 30 µM.

Tyrosine-protein kinase Yes, sequence (P07947 whole entry): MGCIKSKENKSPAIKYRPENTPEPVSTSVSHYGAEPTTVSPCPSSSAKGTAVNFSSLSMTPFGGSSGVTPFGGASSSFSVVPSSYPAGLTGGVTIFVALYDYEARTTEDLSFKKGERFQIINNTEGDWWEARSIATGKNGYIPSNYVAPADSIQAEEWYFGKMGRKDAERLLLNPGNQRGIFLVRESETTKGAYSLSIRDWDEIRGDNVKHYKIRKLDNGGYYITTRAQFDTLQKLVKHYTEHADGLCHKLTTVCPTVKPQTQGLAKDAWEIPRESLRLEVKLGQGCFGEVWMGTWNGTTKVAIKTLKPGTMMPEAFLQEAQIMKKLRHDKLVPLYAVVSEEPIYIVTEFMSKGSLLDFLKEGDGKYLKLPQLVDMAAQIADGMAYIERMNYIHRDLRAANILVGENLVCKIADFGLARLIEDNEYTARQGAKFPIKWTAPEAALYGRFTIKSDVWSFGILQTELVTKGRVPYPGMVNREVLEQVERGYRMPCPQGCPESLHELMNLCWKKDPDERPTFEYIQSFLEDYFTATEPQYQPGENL
Casein kinase II subunit alpha', sequence (P19784 whole entry): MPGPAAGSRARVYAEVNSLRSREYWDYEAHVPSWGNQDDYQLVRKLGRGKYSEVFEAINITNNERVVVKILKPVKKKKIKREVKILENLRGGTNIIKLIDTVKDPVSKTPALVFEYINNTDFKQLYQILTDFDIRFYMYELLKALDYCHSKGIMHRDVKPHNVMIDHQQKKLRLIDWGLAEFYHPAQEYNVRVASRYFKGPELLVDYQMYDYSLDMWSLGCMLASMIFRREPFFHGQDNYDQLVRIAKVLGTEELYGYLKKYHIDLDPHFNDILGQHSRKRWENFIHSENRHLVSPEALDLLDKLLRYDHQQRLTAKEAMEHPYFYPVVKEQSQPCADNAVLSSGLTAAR

SMILES	Kd [1]	Kd [2]	Kd [3]	Kd [4]	Kd [5]	Kd [6]	Kd [7]	Kd [8]
O=c1sn(-c2cccc3ccccc23)c(=O)n1Cc1ccccc1 [TIDEGLUSIB]	> 30 µM (inactive)	> 30 µM (inactive)	> 30 µM (inactive)	> 30 µM (inactive)	> 30 µM (inactive)	> 30 µM (inactive)	> 30 µM (inactive)	> 30 µM (inactive)
Cn1cc(-c2ccc3nnc(C(F)(F)c4ccc5ncccc5c4)n3n2)cn1 [JNJ-38877605]	> 30 µM (inactive)	> 30 µM (inactive)	> 30 µM (inactive)	> 30 µM (inactive)	> 30 µM (inactive)	> 30 µM (inactive)	> 30 µM (inactive)	> 30 µM (inactive)
Cn1ncc(Cl)c1-c1cc(C(=O)N[C@H](CN)Cc2cccc(F)c2)sc1Cl [AFURESERTIB]	> 30 µM (inactive)	> 30 µM (inactive)	> 30 µM (inactive)	> 30 µM (inactive)	> 30 µM (inactive)	> 30 µM (inactive)	> 30 µM (inactive)	–
CNS(=O)(=O)Nc1nccc(Cc2c(C)c3ccc(Oc4ncccn4)cc3oc2=O)c1F [AVUTOMETINIB]	> 30 µM (inactive)	> 30 µM (inactive)	> 30 µM (inactive)	> 30 µM (inactive)	> 30 µM (inactive)	> 30 µM (inactive)	> 30 µM (inactive)	> 30 µM (inactive)
CN(C)C(=O)c1cc2cnc(Nc3ccc(N4CCNCC4)cn3)nc2n1C1CCCC1 [RIBOCICLIB]	> 30 µM (inactive)	> 30 µM (inactive)	> 30 µM (inactive)	> 30 µM (inactive)	> 30 µM (inactive)	> 30 µM (inactive)	> 30 µM (inactive)	> 30 µM (inactive)
CCc1cnn2c(NCc3ccc[n+]([O-])c3)cc(N3CCCC[C@H]3CCO)nc12 [DINACICLIB]	> 30 µM (inactive)	> 30 µM (inactive)	> 30 µM (inactive)	> 30 µM (inactive)	> 30 µM (inactive)	> 30 µM (inactive)	–	0.271 µM (active)
COc1ccc(-c2ccc3c(N4CCOC[C@@H]4C)nc(N4CCOC[C@@H]4C)nc3n2)cc1CO [AZD-8055]	> 30 µM (inactive)	> 30 µM (inactive)	> 30 µM (inactive)	> 30 µM (inactive)	> 30 µM (inactive)	> 30 µM (inactive)	> 30 µM (inactive)	> 30 µM (inactive)
COc1cc2nccc(Oc3ccc(NC(=O)Nc4cc(C)on4)c(Cl)c3)c2cc1OC [TIVOZANIB]	> 30 µM (inactive)	> 30 µM (inactive)	> 30 µM (inactive)	> 30 µM (inactive)	> 30 µM (inactive)	> 30 µM (inactive)	> 30 µM (inactive)	> 30 µM (inactive)
C[C@@H](Nc1cc(F)cc(F)c1)c1cc(C(=O)N(C)C)cc2c(=O)cc(N3CCOCC3)oc12 [AZD-8186]	> 30 µM (inactive)	> 30 µM (inactive)	> 30 µM (inactive)	> 30 µM (inactive)	> 30 µM (inactive)	> 30 µM (inactive)	> 30 µM (inactive)	> 30 µM (inactive)
CNC(=O)CN1CCC(Oc2cc3c(Nc4cccc(Cl)c4F)ncnc3cc2OC)CC1 [SAPITINIB]	> 30 µM (inactive)	> 30 µM (inactive)	> 30 µM (inactive)	> 30 µM (inactive)	> 30 µM (inactive)	> 30 µM (inactive)	> 30 µM (inactive)	> 30 µM (inactive)
CCCS(=O)(=O)Nc1ccc(F)c(C(=O)c2c[nH]c3ncc(-c4ccc(Cl)cc4)cc23)c1F [VEMURAFENIB]	> 30 µM (inactive)	> 30 µM (inactive)	> 30 µM (inactive)	> 30 µM (inactive)	> 30 µM (inactive)	> 30 µM (inactive)	> 30 µM (inactive)	> 30 µM (inactive)
C=CC(=O)N1CCC(Oc2cc3c(Nc4ccc(Cl)c(Cl)c4F)ncnc3cc2OC)CC1 [POZIOTINIB]	> 30 µM (inactive)	–	> 30 µM (inactive)	> 30 µM (inactive)	> 30 µM (inactive)	> 30 µM (inactive)	> 30 µM (inactive)	> 30 µM (inactive)
Cc1cn(-c2cc(NC(=O)c3ccc(C)c(Nc4nccc(-c5cccnc5)n4)c3)cc(C(F)(F)F)c2)cn1 [NILOTINIB]	–	–	–	> 30 µM (inactive)	–	–	–	–
Cc1cc(Nc2cc(N3CCN(C)CC3)nc(/C=C/c3ccccc3)n2)n[nH]1 [ENMD-2076]	0.441 µM (active)	4.41 µM (active)	> 30 µM (inactive)	> 30 µM (inactive)	> 30 µM (inactive)	–	–	> 30 µM (inactive)
OCCn1cc(-c2cnc3nnn(Cc4ccc5ncccc5c4)c3n2)cn1 [PF-04217903]	> 30 µM (inactive)	> 30 µM (inactive)	> 30 µM (inactive)	> 30 µM (inactive)	> 30 µM (inactive)	> 30 µM (inactive)	–	> 30 µM (inactive)
O=C(Nc1cccc(Cl)c1)Nc1ncc(CCNc2ncnc3ccsc23)s1 [SNS-314]	> 30 µM (inactive)	> 30 µM (inactive)	–	> 30 µM (inactive)	> 30 µM (inactive)	–	–	> 30 µM (inactive)
Cc1nc(N)sc1-c1ccnc(Nc2ccc(N3CCOCC3)cc2)n1 [CYC-116]	> 30 µM (inactive)	0.015 µM (active)	> 30 µM (inactive)	> 30 µM (inactive)	> 30 µM (inactive)	–	–	–
CCn1c(-c2nonc2N)nc2c(C#CC(C)(C)O)ncc(OC[C@H]3CCCNC3)c21 [GSK-690693]	–	–	–	> 30 µM (inactive)	–	–	–	–
CO[C@H]1C[C@@H]2CC[C@@H](C)[C@@](O)(O2)C(=O)C(=O)N2CCCC[C@H]2C(=O)O[C@H]([C@H](C)C[C@@H]2CC[C@@H](OCCO)[C@H](OC)C2)CC(=O)[C@H](C)/C=C(\C)[C@@H](O)[C@@H](OC)C(=O)[C@H](C)C[C@H](C)/C=C/C=C/C=C/1C [EVEROLIMUS]	> 30 µM (inactive)	> 30 µM (inactive)	> 30 µM (inactive)	> 30 µM (inactive)	> 30 µM (inactive)	> 30 µM (inactive)	> 30 µM (inactive)	–
CCN1CCN(Cc2ccc(-c3cc4c(N[C@H](C)c5ccccc5)ncnc4[nH]3)cc2)CC1 [AEE-788]	–	> 30 µM (inactive)	> 30 µM (inactive)	> 30 µM (inactive)	> 30 µM (inactive)	> 30 µM (inactive)	> 30 µM (inactive)	> 30 µM (inactive)
CN1CCN(c2ccc3nc(-c4c(N)c5c(F)cccc5[nH]c4=O)[nH]c3c2)CC1 [DOVITINIB]	–	–	–	> 30 µM (inactive)	–	–	–	–
Nc1nc(N)c2nc(-c3cccc(O)c3)c(-c3cccc(O)c3)nc2n1 [TG100-115]	–	> 30 µM (inactive)	–	> 30 µM (inactive)	–	–	–	–
